Measurements taken from patent US8796323B2, “Defensin-like molecules as novel antimicrobial agents” (University of Maryland, Baltimore, priority 2010, dated 2014).
No end group written: not given here.

B1: HD-5: α-defensin Human Defensin 5 (peptide, UniProt Q01523 20-94, looked up)
Defensin alpha 5: ESLQERADEATTQKQSGEDNQDLAISFAGNGLSALRTSGSQARATCYCRTGRCATRESLSGVCEISGRLYRLCCR
modifications: Defensin-5

Experiments:
[1] = Surface Plasmon Resonance binding of compounds to immobilized 3-Lipid II; settings: SPR, FIG. 5
Method: The present inventors examined if the identified compounds themselves directly interact with Lipid II, which would be expected if they mimic the binding of HNP-1. Binding of compounds was tested directly using Surface Plasmon Resonance with 3-Lipid II immobilized on the chip surface (FIG. 5).

[2] = test system: Staphylococcus aureus ATCC 29213; experiment: vCC antibacterial assay, S. aureus; type: cell-based; settings: 30 minutes exposure, 500 to 1.95 μM
Method: (§1) The inventors have now tested the bacterial killing capacity of the identified compounds. The antibacterial activity was determined using the vCC assay as discussed in Ericksen, B., Wu, Z., Lu, W. and Lehrer, R. I. (2005), “Antibacterial activity and specificity of the six human {alpha}-defensins. Antimicrob Agents” Chemother 49, 269-75.). All compounds were tested initially for killing of Staphylococcus aureus ATCC 29213. All compounds were dissolved in DiMethylSulfylOxide (DMSO) and exposed to bacteria for 30 minutes in concentrations ranging from 500 to 1.95 μM. Compounds effectively killing S. aureus were subsequently tested against E. coli ATCC 25922 to assay for strain-selectivity.

S. aureus = settings: literature (Ericksen 2005; Wei 2009); cited from earlier work
[3] = ANTS/DPX leakage assay from large unilamellar vesicles; settings: POPG LUVs, panel of six human α-defensins, FIG. 1
Method: Large unilamellar vesicles (LUVs) with the low molecular weight fluorophore/quencher pair (ANTS/DPX) encapsulated were prepared using the standard extrusion method. Specifically, phospholipids were dissolved in chloroform at a desired molar ratio, dried as a film by solvent evaporation. After removal of residual solvent, the lipid film was hydrated in the fluorescent solution containing 5 mM HEPES, 12.5 mM ANTS, 45 mM DPX, and 20 mM NaCl, pH 7.0, freeze-thawed for 10 cycles and extruded 10 times through 0.4-μm polycarbonate membranes. LUVs were separated from unencapsulated materials by gel filtration chromatography using a Sepharose CL-4B column eluted with 5 mM HEPES, 100 mM NaCl, pH 7.4 (high-salt). For leakage assays in a low-salt buffer, purified vesicles were further diluted with 5 mM HEPES containing 10 mM NaCl, pH 7.4.
Leakage of ANTS from LUVs, monitored on a LS-55 Perkin Elmer luminescence spectrometer, was characterized by an increase in fluorescence, which was quenched by DPX when encapsulated together inside liposomes (Ellens, H., et al., 1985, “H+- and Ca2+-induced fusion and destabilization of liposomes,” Biochemistry 24:3099-3106). 270 μl ANTS/DPX-encapsulated LUVs (in either high-salt or low-salt buffers) were added to each well of a 96-well plate to a final lipid concentration of 600 μM. 30 μl H2O was added to the first well of each row as a blank, and 30 μl 2.5% (v/v) Triton X-100 to the last (twelfth) well as the control for 100% leakage. Upon addition of 30 μl of a twofold dilution series of defensin, the fluorescence signal was recorded at 515 nm with an excitation wavelength of 353 nm, 10 nm bandwidths and a 390 nm cut-off filter in the emission path. Percent leakage is expressed as: % leakage=((Ft−F0)/(F100−F0))×100 where Ft is the fluorescence determined at different time points after addition of defensin, F0 is the background fluorescence of the “blank” cells, and F100 is the fluorescence of the control cells containing 0.25% Triton X-100. Lipid II Purification
Defensins are believed to kill bacteria by permeabilizing the membrane, causing leakage of intracellular content and eventually cell lysis and death. The present inventors tested the ability of six human α-defensins to induce leakage of fluorophores encapsulated in LUVs (See FIG. 1). […] (A) At high salt concentration (5 mM HEPES, 100 mM NaCl, pH 7.4). (B) At low salt concentration (5 mM HEPES, 10 mM NaCl, pH 7.4). LUVs were 250 nm in diameter and 600 μM (phospholipids) in concentration.
(A) Effects of surface charge on HNP1-induced leakage from LUVs of four different compositions: POPC (circle, surface charge=0), POPC/POPG=3:2 (square, surface charge=−0.4), POPC/POPG=2:3 (triangle, surface charge=−0.6), and POPG (diamond, surface charge=−1). (B) LUV (POPG:DPPC 1:1) leakage induced by L-HNP1 (circles) or D-HNP1 (squares). A two-fold dilution series of HNP1 peptides from 0.19 to 100 μg/ml was incubated with 600 μM LUVs for one hour before readings were taken. Error bars indicate the standard error in triplicate experiments.

E. coli ATCC 25922 = experiment: vCC antibacterial assay, E. coli (strain-selectivity); type: cell-based; settings: 30 minutes exposure, 500 to 1.95 μM
Method: as §1

[4] = test system: intestinal epithelial cell line Caco-2; experiment: Caco-2 cell viability, MTT assay; type: cell-based; settings: Caco-2, 24 h
Method: Caco-2 cells were seeded at 2. 10^5 cells/ml and exposed to compounds ranging in concentration from 500 to 3.7125 μM. Cell viability was determined after 24 h by the MTT assay and is expressed as a percentage of the viability of untreated cells.

Molecule	binding to 3-Lipid II immobilized on the chip surface [1]	killing of S. aureus [2]	bactericidal activity against S. aureus / Gram-positive bacteria (S. aureus)	membrane activity (leakage of ANTS-DPX from POPG LUVs) [3]	bactericidal activity against E. coli (E. coli ATCC 25922)	cytotoxicity [4]
OCc1ccc2c(c1)C1c3ccccc3C2c2ccccc21 [Compound 5100015, pentacyclo[6.6.6.0˜2,7˜.0˜9,14˜.0˜15,20˜]icosa-2,4,6,9,11,13,15,17,19-nonaen-4-ylmethanol]	bind to Lipid II	very efficient in killing of S. aureus	–	–	–	–
Oc1ccc(C(c2ccc(O)cc2)c2ccc(F)cc2)cc1 [Compound 0251-0215, 4-[(4-fluorophenyl)(4-hydroxyphenyl)methyl]phenol]	bind to Lipid II	very efficient in killing of S. aureus	–	–	–	–
HNP4: fourth human neutrophil α-defensin (VCSCRLVFCRRTELRVGNCLIGGVSFTYCCTRV; not fully specified; ends and bridges not checked; UniProt P12838 64-96, looked up)	–	–	ineffective against Gram-positive bacteria	most membrane active defensin in the panel of six	–	–
3-ethyl-5-methyl-4-phenyl-2-[3-(1,3,3-trimethyl-1,3-dihydro-2H-indol-2-ylidene)prop-1-en-1-yl]-1,3-thiazol-3-ium [Compound 7771-0701]	bind to Lipid II	very efficient in killing of S. aureus	–	–	–	–
CC[n+]1c(/C=C/C=C2C=C(/C=C/N(C)c3ccccc3)CC(C)(C)C/2)sc2ccccc21 [Compound 5107930, 2-[3-(5,5-dimethyl-3-{2-[methyl(phenyl)amino]vinyl}-2-cyclohexen-1-ylidene)-1-propen-1-yl]-3-ethyl-1,3-benzothiazol-3-ium iodide]	–	Effectively kills S. aureus at low concentrations	–	–	Shows little bactericidal activity against E. coli	Displays relatively low cytotoxicity
B1	–	–	potently bactericidal	little membrane activity even at high concentrations	–	–
